“And” between values parts separate entries of the source, which are not always exact repeats. Equal values may be shown once. Inconclusive results and toxic doses are left out.
Tested on: Gardner 6C3HED lymphosarcoma ip, C3AKF1 mice, survival T/C
Test: NCI In Vivo Anticancer Drug Screen. Data for tumor model Lymphosarcoma Gardner 6C3HED (intraperitoneal) in C3AKF1 (CHKRF1) mice
Details: endpoint: survival time, mean or median, schedule: Q01DX010 (ip), higher = longer survival
Protocol: The antitumor activity of compounds was measured in mice bearing transplantable tumors. Survival or tumor size were measured and the results are expressed as the measurement made in the treated group (T) divided by the measurement made in the vehicle treated control group (C). The tumor model used in this assay is Lymphosarcoma Gardner 6C3HED (intraperitoneal) in C3AKF1 (CHKRF1) mice

[1] = dose: 62.5 mg/kg/injection, vehicle: saline
[2] = dose: 125.0 mg/kg/injection, vehicle: saline
[3] = dose: 250.0 mg/kg/injection, vehicle: saline
[4] = dose: 500.0 mg/kg/injection, vehicle: saline
[5] = dose: 5.0 mg/kg/injection, vehicle: saline
[6] = dose: 10.0 mg/kg/injection, vehicle: saline
[7] = dose: 2.0 mg/kg/injection, vehicle: saline
[8] = dose: 4.0 mg/kg/injection, vehicle: saline
[9] = dose: 8.0 mg/kg/injection, vehicle: saline
[10] = dose: 16.0 mg/kg/injection, vehicle: saline
[11] = dose: 6.25 mg/kg/injection, vehicle: saline
[12] = dose: 1.0 mg/kg/injection, vehicle: saline

OCC1OC(n2cnc3c(Cl)ncnc32)C(O)C1O (configuration not stated)
T/C [1]: 95 % of control
T/C [2]: 90 % of control
T/C [3]: 90 % of control
T/C [4]: 90 % of control and 100 % of control

Nc1nc(=S)c2[nH]cnc2[nH]1
T/C (dose: 1.25 mg/kg/injection, vehicle: other): 95 % of control and 100 % of control
T/C (dose: 1.25 mg/kg/injection, vehicle: saline): 120 % of control
T/C (dose: 2.5 mg/kg/injection, vehicle: other): 104 % of control
T/C (dose: 2.5 mg/kg/injection, vehicle: saline): 100 % of control and 110 % of control
T/C (dose: 5.0 mg/kg/injection, vehicle: other): 113 % of control
T/C [5]: 100 % of control and 105 % of control
T/C (dose: 10.0 mg/kg/injection, vehicle: other): 95 % of control
T/C [6]: 100 % of control and 120 % of control

O=C(Nc1ccc(NC2=NCCN2)cc1)c1ccc(C(=O)Nc2ccc(NC3=NCCN3)cc2)cc1
T/C [7]: 180 % of control
T/C [8]: 195 % of control and 265 % of control
T/C [9]: 190 % of control
T/C [10]: 115 % of control

CN(C)c1ccc(/C=C/c2ccnc3ccccc23)cc1
T/C [5]: 96 % of control
T/C [6]: 92 % of control
T/C (dose: 20.0 mg/kg/injection, vehicle: saline): 92 % of control

Nc1ncnc2[nH]ncc12
T/C (dose: 1.5 mg/kg/injection, vehicle: saline): 95 % of control and 110 % of control
T/C (dose: 3.0 mg/kg/injection, vehicle: saline): 100 % of control and 104 % of control
T/C (dose: 6.0 mg/kg/injection, vehicle: saline): 95 % of control
T/C (dose: 12.0 mg/kg/injection, vehicle: saline): 95 % of control
T/C [10]: 90 % of control

O=c1cn[nH]c(=O)[nH]1
T/C [1]: 100 % of control and 104 % of control
T/C [2]: 104 % of control
T/C [3]: 90 % of control and 95 % of control
T/C [4]: 90 % of control

CCCNc1ncnc2[nH]ncc12
T/C (dose: 3.13 mg/kg/injection, vehicle: saline): 86 % of control and 90 % of control
T/C [11]: 90 % of control
T/C (dose: 12.5 mg/kg/injection, vehicle: saline): 90 % of control and 95 % of control

O=NN(CCCl)C(=O)NCCCl
T/C [11]: 300 % of control
T/C (dose: 16.25 mg/kg/injection, vehicle: saline): 257 % of control

CS(=O)(=O)OCCCl
T/C (dose: 18.8 mg/kg/injection, vehicle: saline): 100 % of control
T/C (dose: 37.5 mg/kg/injection, vehicle: saline): 100 % of control
T/C (dose: 75.0 mg/kg/injection, vehicle: saline): 95 % of control
T/C (dose: 150.0 mg/kg/injection, vehicle: saline): 100 % of control

NC(=O)N(CCCl)N=O
T/C (dose: 0.5 mg/kg/injection, vehicle: saline): 150 % of control and 204 % of control
T/C [12]: 250 % of control and 254 % of control
T/C [8]: 86 % of control

CCN(CC)c1ccc2cc3ccc(=[N+](CC)CC)cc-3oc2c1
T/C [12]: 100 % of control and 109 % of control
T/C [7]: 100 % of control and 122 % of control
T/C [8]: 100 % of control and 104 % of control
T/C [9]: 95 % of control and 100 % of control

O=c1cnn(C2OC(CO)C(O)C2O)c(=O)[nH]1 (configuration not stated)
T/C (dose: 200.0 mg/kg/injection, vehicle: saline): 105 % of control and 115 % of control
T/C (dose: 400.0 mg/kg/injection, vehicle: saline): 115 % of control
T/C (dose: 800.0 mg/kg/injection, vehicle: saline): 110 % of control and 120 % of control
T/C (dose: 1600.0 mg/kg/injection, vehicle: saline): 95 % of control

CS(=O)(=O)OCCN(CCOS(C)(=O)=O)c1ccc(N=O)cc1
T/C [12]: 107 % of control

Clc1ncnc2nc[nH]c12
T/C (dose: 7.5 mg/kg/injection, vehicle: saline): 87 % of control and 95 % of control
T/C (dose: 15.0 mg/kg/injection, vehicle: saline): 95 % of control
T/C (dose: 30.0 mg/kg/injection, vehicle: saline): 95 % of control
